The subject of series [1] is 22RV1 cells. Description: Cytotoxicity assessment (Cell-titer-glo cell viability), 22RV1. The format is cell-based.
Description: (§1) In order to evaluate the androgen receptor (AR) cytotoxicity of the compounds according to the present invention, the following experiment was conducted. Specifically, 1.5×10^3 (LNCaP) or 4×10^3 (VCaP, 22RV1), respectively, of LNCaP, VCaP, and 22RV1 cells were injected into each well of a 96-well plate. The next day, each well was treated with the compound at a final concentration of 3 nM, 10 nM, 30 nM, 100 nM, 300 nM, 1 μM, 3 μM, and 10 μM. […] After 6 days of treatment, Cell-titer-glo (promega) was treated and reacted for 10 minutes, and cell viability was measured with a multimode plate reader (PerkinElmer, Inc.), and the change was quantified compared to when DMSO was treated.
Series [2] deals with T1, Androgen receptor (AR) (Homo sapiens, UniProt P10275, T878A).
T1 construct: 5.5×10^5 LNCap cells were injected into each well of a 6-well plate; endogenous in cells; host or cells: LNCaP
T1 sequence (P10275 1-920 T878A): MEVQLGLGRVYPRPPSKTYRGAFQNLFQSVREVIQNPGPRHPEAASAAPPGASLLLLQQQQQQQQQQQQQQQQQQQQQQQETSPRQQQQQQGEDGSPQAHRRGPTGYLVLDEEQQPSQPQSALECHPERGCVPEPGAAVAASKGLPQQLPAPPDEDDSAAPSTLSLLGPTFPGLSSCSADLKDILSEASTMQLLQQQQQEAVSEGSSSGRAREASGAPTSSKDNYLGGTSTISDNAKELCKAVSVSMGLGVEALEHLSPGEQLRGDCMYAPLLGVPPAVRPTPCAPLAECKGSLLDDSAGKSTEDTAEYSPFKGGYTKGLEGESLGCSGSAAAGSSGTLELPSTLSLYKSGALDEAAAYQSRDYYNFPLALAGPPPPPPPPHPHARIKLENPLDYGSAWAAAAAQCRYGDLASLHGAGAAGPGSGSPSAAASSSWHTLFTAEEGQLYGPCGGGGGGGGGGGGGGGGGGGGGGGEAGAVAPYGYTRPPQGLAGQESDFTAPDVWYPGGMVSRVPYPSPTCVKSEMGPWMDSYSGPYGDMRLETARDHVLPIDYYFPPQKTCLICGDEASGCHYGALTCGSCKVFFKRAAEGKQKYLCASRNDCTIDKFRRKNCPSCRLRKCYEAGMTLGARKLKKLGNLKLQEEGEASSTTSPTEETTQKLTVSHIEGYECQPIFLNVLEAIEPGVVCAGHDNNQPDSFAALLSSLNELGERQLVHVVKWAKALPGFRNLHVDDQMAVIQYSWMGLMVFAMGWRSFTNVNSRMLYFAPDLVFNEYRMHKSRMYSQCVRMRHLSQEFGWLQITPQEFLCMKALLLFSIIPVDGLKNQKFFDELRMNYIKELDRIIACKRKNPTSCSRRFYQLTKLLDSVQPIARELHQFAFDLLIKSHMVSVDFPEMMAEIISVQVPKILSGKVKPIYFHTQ
Description: Assessment of AR proteolytic activity (Western blotting of LNCap cell lysates). The format is cell-based. The following applies: 24 hours of treatment, Western blotting quantified with Image J. An outline of the steps:
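LNCap cells seeded at 5.5×10^5 per well and treated with compound for 24 hours. Lysates prepared in RIPA buffer (pH 7.5, with protease inhibitors). AR protein levels assessed by Western blot with densitometric quantification.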

Series [3] deals with LNCaP cells.
Description: as §1
The subject of series [4] is LNCaP cells. Briefly: Cytotoxicity assessment (Cell-titer-glo cell viability), LNCaP. The following applies: read-out: LNCAP (CC50); LNCaP cells, 6 days of treatment, Cell-titer-glo, vs DMSO.
Description: as §1
In series [5] the test system is VCaP cells.

Molecules are shown by their SMILES. Read-outs that look alike come from different tables or passages of the source.

As for `CC1(C)[C@H](NC(=O)c2ccc(OCCOCCOCCOCCOCCOCCCNc3cccc4nnn(C5CCC(=O)NC5=O)c(=O)c34)cc2)C(C)(C)[C@H]1Oc1ccc(C#N)c(Cl)c1` (single isomer, unassigned) [Example 3, N-((1r,3r)-3-(3-chloro-4-cyanophenoxy)-2,2,4,4-tetramethylcyclobutyl)-4-((18-((3-(2,6-dioxopiperidin-3-yl)-4-oxo-3,4-dihydrobenzo[d][1,2,3]triazin-5-yl)amino)-3,6,9,12,15-pentaoxaoctadecyl)oxy)benzamide], the CC50 came to 430 nM in series [1] and 2980 nM in series [3]. Also, the “Degradation (1 μM treated in LNCaP, % AR remaining)” value in series [2] is 47%.

With `CC1(C)[C@H](NC(=O)c2ccc(OCCOCCOCCOCCOCCOCCCNc3cccc4nnn(C5CCC(=O)NC5=O)c(=O)c34)cc2)C(C)(C)[C@H]1Oc1ccc(C#N)c(Cl)c1` (single isomer, unassigned) [Example 4, N-((1r,3r)-3-(3-chloro-4-cyanophenoxy)-2,2,4,4-tetramethylcyclobutyl)-4-((18-((3-(2,6-dioxopiperidin-3-yl)-4-oxo-3,4-dihydrobenzo[d][1,2,3]triazin-5-yl)amino)-3,6,9,12,15-pentaoxaoctadecyl)oxy)benzamide], the CC50 was found to be 4460 nM in series [1] and 5320 nM in series [3]. Further, the “Degradation (1 μM treated in LNCaP, % AR remaining)” value in series [2] came to 58%.

Consider `CC1(C)C(NC(=O)c2ccc(OCCOCCOCCOCCOCCOCCOCCCCNc3cccc4nnn(C5CCC(=O)NC5=O)c(=O)c34)cc2)C(C)(C)C1Oc1ccc(C#N)c(Cl)c1` (stereo not drawn) [Example 6, N-((1r,3r)-3-(3-chloro-4-cyanophenoxy)-2,2,4,4-tetramethylcyclobutyl)-4-((22-((3-(2,6-dioxopiperidin-3-yl)-4-oxo-3,4-dihydrobenzo[d][1,2,3]triazin-5-yl)amino)-3,6,9,12,15,18-hexaoxadocosyl)oxy)benzamide], for which the CC50 was 7100 nM in series [1] (22RV1 cells, 6 days of treatment, Cell-titer-glo, vs DMSO, read-out: 22RV1 (CC50)) and 5930 nM in series [4]. For the same molecule, the “Degradation (1 μM treated in LNCaP, % AR remaining)” value in series [2] was 66%.

For the molecule `CC1(C)[C@H](NC(=O)c2ccc(-c3cnn(C4CCN(CC5CCN(C(=O)C6CN(c7ccc8nnn(C9CCC(=O)NC9=O)c(=O)c8c7)C6)CC5)CC4)c3)cc2)C(C)(C)[C@H]1Oc1ccc(C#N)c(Cl)c1` (stereo partly drawn) [Example 83, N-((1r,3r)-3-(3-chloro-4-cyanophenoxy)-2,2,4,4-tetramethylcyclobutyl)-4-(1-(1-((1-(1-(3-(2,6-dioxopiperidin-3-yl)-4-oxo-3,4-dihydrobenzo[d][1,2,3]triazin-6-yl)azetidine-3-carbonyl)piperidin-4-yl)methyl)piperidin-4-yl)-1H-pyrazol-4-yl)benzamide], the “Degradation (1 μM treated in LNCaP, % AR remaining)” value in series [2] was 43%. In addition, the CC50 in series [3] was 13.7 nM; in series [5], 6 nM.

Consider `CC1(C)[C@H](NC(=O)c2ccc(C#CC3CCN(CC4CCN(c5ccc6nnn(C7CCC(=O)NC7=O)c(=O)c6c5)CC4)CC3)cc2)C(C)(C)[C@H]1Oc1ccc(C#N)c(Cl)c1` (stereo partly drawn) [Example 99, N-((1r,3r)-3-(3-chloro-4-cyanophenoxy)-2,2,4,4-tetramethylcyclobutyl)-4-((1-((1-(3-(2,6-dioxopiperidin-3-yl)-4-oxo-3,4-dihydrobenzo[d][1,2,3]triazin-6-yl)piperidin-4-yl)methyl)piperidin-4-yl)ethynyl)benzamide], for which, in series [2], the “Degradation (1 μM treated in LNCaP, % AR remaining)” value is on record as 20%. Besides, the values for the CC50 in series [3] and in series [5] were 31.5 nM and 2 nM, respectively.

`CC1(C)[C@H](NC(=O)c2ccc(-n3cc(C4CCN(C(=O)C5CN(c6ccc7nnn(C8CCC(=O)NC8=O)c(=O)c7c6)C5)CC4)nn3)cc2)C(C)(C)[C@H]1Oc1ccc(C#N)c(Cl)c1` (stereo partly drawn) [Example 101, N-((1r,3r)-3-(3-chloro-4-cyanophenoxy)-2,2,4,4-tetramethylcyclobutyl)-4-(4-(1-(1-(3-(2,6-dioxopiperidin-3-yl)-4-oxo-3,4-dihydrobenzo[d][1,2,3]triazin-6-yl)azetidine-3-carbonyl)piperidin-4-yl)-1H-1,2,3-triazol-1-yl)benzamide]: the “Degradation (1 μM treated in LNCaP, % AR remaining)” value in series [2] is listed as 40%. Moreover, the CC50 worked out at 7.06 nM in series [3] and 15.5 nM in series [5].

As for `CC1(C)[C@H](NC(=O)c2ccc(C#CC3CCN(C(=O)CNc4ccc5nnn(C6CCC(=O)NC6=O)c(=O)c5c4)CC3)cc2)C(C)(C)[C@H]1Oc1ccc(C#N)c(Cl)c1` (stereo partly drawn) [Example 143, N-((1r,3r)-3-(3-chloro-4-cyanophenoxy)-2,2,4,4-tetramethylcyclobutyl)-4-((1-((3-(2,6-dioxopiperidin-3-yl)-4-oxo-3,4-dihydrobenzo[d][1,2,3]triazin-6-yl)glycyl)piperidin-4-yl)ethynyl)benzamide], the “Degradation (1 μM treated in LNCaP, % AR remaining)” value in series [2] came out at 18%. Besides, the CC50 was 17.6 nM in series [3] and 6.9 nM in series [5].

With `CC1(C)[C@H](NC(=O)c2ccc(C#CC3CCN(C(=O)COc4ccc5nnn(C6CCC(=O)NC6=O)c(=O)c5c4)CC3)cc2)C(C)(C)[C@H]1Oc1ccc(C#N)c(Cl)c1` (stereo partly drawn) [Example 144, N-((1r,3r)-3-(3-chloro-4-cyanophenoxy)-2,2,4,4-tetramethylcyclobutyl)-4-((1-(2-((3-(2,6-dioxopiperidin-3-yl)-4-oxo-3,4-dihydrobenzo[d][1,2,3]triazin-6-yl)oxy)acetyl)piperidin-4-yl)ethynyl)benzamide], the “Degradation (1 μM treated in LNCaP, % AR remaining)” value in series [2] is on record as 14.7%. For the same molecule, the figures for the CC50 in series [3] and in series [5] were 144 nM and 21 nM, respectively.

A word on the CC50: it is the concentration that lowers cell viability or growth by half.
